In brackets after ≈: the same amount, converted by molar mass. Activity calls are given as the source filed them. The calls are words filed in the database; no cut-off is given here.
Columns and labels:
Escherichia coli [1] = assay: Antibacterial activity against Escherichia coli K-12 MG1655 after 16 hrs by microbroth dilution method; type: functional; settings: K-12 MG1655, 16 h
Bacillus subtilis = assay: Antibacterial activity against Bacillus subtilis 168 after 16 hrs by microbroth dilution method; type: functional; settings: subsp. subtilis str. 168, 16 h
Candida albicans = assay: Antifungal activity against Candida albicans after 16 hrs by microbroth dilution method; type: functional
[2] = test system: Stenotrophomonas maltophilia; assay: Antibacterial activity against Stenotrophomonas maltophilia B22020 after 16 hrs by microbroth dilution method; type: functional; settings: B22020, 16 h
Micrococcus luteus = assay: Antibacterial activity against Micrococcus luteus after 16 hrs by microbroth dilution method; type: functional
Pseudomonas aeruginosa = assay: Antibacterial activity against Pseudomonas aeruginosa PAO1 after 16 hrs by microbroth dilution method; type: functional; settings: PAO1, 16 h
HeLa = assay: Cytotoxicity against human HeLa cells after 24 hrs by Cell Titre-Glo luminescent assay; type: cell-based
Escherichia coli [3] = assay: Antibacterial activity against Escherichia coli ATCC 25922 after 16 hrs by microbroth dilution method; type: functional; settings: ATCC 25922, 16 h
Burkholderia cepacia = assay: Antibacterial activity against Burkholderia cepacia B154408 after 16 hrs by microbroth dilution method; type: functional; settings: B154408, 16 h
Staphylococcus aureus = assay: Antibacterial activity against Staphylococcus aureus after 16 hrs by microbroth dilution method; type: functional
[4] = target: Small ribosomal subunit protein bS18 (Escherichia coli (strain K12)) (UniProt P0A7T7); assay: Inhibition of IPTG-stimulated Escherichia coli K-12 rpSR at 4 fold MIC by microarray analysis
[5] = target: T1, Outer membrane protein TolC (Escherichia coli (strain K12)) (UniProt P02930); assay: Inhibition of IPTG-stimulated Escherichia coli K-12 tolC at 8 fold MIC by microarray analysis
T1 sequence (whole entry): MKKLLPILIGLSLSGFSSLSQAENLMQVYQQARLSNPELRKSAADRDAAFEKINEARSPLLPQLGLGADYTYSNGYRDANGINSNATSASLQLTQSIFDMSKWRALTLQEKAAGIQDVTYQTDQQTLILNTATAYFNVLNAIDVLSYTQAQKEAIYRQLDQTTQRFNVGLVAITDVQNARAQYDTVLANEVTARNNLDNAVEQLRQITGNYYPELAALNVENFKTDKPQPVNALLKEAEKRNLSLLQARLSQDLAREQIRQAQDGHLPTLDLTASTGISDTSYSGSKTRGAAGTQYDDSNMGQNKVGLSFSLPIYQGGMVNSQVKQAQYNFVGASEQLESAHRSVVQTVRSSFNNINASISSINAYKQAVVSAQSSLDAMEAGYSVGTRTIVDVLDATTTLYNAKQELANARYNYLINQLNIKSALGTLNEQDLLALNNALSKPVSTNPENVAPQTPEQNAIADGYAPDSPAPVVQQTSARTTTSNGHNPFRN

[6] = target: Large ribosomal subunit protein uL2 (Escherichia coli (strain K12)) (UniProt P60422); assay: Inhibition of IPTG-stimulated Escherichia coli K-12 rplB at 4 fold MIC by microarray analysis
[7] = target: 4-hydroxy-tetrahydrodipicolinate reductase (Escherichia coli (strain K12)) (UniProt P04036); assay: Inhibition of IPTG-stimulated Escherichia coli K-12 dapB at 4 fold MIC by microarray analysis
[8] = target: Antitoxin YefM (Escherichia coli (strain K12)) (UniProt P69346); assay: Inhibition of IPTG-stimulated Escherichia coli K-12 yefM at 4 fold MIC by microarray analysis
[9] = target: Glutamyl-tRNA reductase (Escherichia coli (strain K12)) (UniProt P0A6X1); assay: Inhibition of IPTG-stimulated Escherichia coli K-12 hemA at 4 fold MIC by microarray analysis
[10] = target: tRNA(Ile)-lysidine synthase (Escherichia coli (strain K12)) (UniProt P52097); assay: Inhibition of IPTG-stimulated Escherichia coli K-12 mesJ at 4 fold MIC by microarray analysis
[11] = target: Large ribosomal subunit protein bL28 (Escherichia coli (strain K12)) (UniProt P0A7M2); assay: Inhibition of IPTG-stimulated Escherichia coli K-12 rpmB at 4 fold MIC by microarray analysis
[12] = target: Thymidylate kinase (Escherichia coli (strain K12)) (UniProt P0A720); assay: Inhibition of IPTG-stimulated Escherichia coli K-12 tmk at 4 fold MIC by microarray analysis
[13] = target: tRNA threonylcarbamoyladenosine biosynthesis protein TsaE (Escherichia coli (strain K12)) (UniProt P0AF67); assay: Inhibition of IPTG-stimulated Escherichia coli K-12 yjeE at 4 fold MIC by microarray analysis
[14] = target: T2, Uncharacterized protein YdiL (Escherichia coli (strain K12)) (UniProt P76196); assay: Inhibition of IPTG-stimulated Escherichia coli K-12 ydiL at 8 fold MIC by microarray analysis
T2 sequence (whole entry): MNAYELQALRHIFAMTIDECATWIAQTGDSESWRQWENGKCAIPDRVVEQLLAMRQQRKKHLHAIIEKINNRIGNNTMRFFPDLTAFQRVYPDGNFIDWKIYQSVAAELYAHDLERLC

[15] = target: T1, Outer membrane protein TolC (Escherichia coli (strain K12)); assay: Inhibition of IPTG-stimulated Escherichia coli K-12 tolC at 16 fold MIC by microarray analysis
[16] = target: T1, Outer membrane protein TolC (Escherichia coli (strain K12)); assay: Inhibition of IPTG-stimulated Escherichia coli K-12 tolC at 4 fold MIC by microarray analysis
[17] = target: Cell shape-determining protein MreC (Escherichia coli (strain K12)) (UniProt P16926); assay: Inhibition of IPTG-stimulated Escherichia coli K-12 mreC at 4 fold MIC by microarray analysis
[18] = target: Long-chain fatty acid transport protein (Escherichia coli (strain K12)) (UniProt P10384); assay: Inhibition of IPTG-stimulated Escherichia coli K-12 fadl at 4 fold MIC by microarray analysis
[19] = target: Intermembrane phospholipid transport system binding protein MlaB (Escherichia coli (strain K12)) (UniProt P64602); assay: Inhibition of IPTG-stimulated Escherichia coli K-12 yrbB at 4 fold MIC by microarray analysis
[20] = target: D-alanine--D-alanine ligase B (Escherichia coli K-12) (UniProt P07862); assay: Inhibition of IPTG-stimulated Escherichia coli K-12 ddlB at 4 fold MIC by microarray analysis
[21] = target: Cell division protein FtsX (Escherichia coli (strain K12)) (UniProt P0AC30); assay: Inhibition of IPTG-stimulated Escherichia coli K-12 ftsX at 4 fold MIC by microarray analysis
[22] = target: Protein YdfW (Escherichia coli (strain K12)) (UniProt P76164); assay: Inhibition of IPTG-stimulated Escherichia coli K-12 ydfW at 4 fold MIC by microarray analysis
[23] = target: T2, Uncharacterized protein YdiL (Escherichia coli (strain K12)); assay: Inhibition of IPTG-stimulated Escherichia coli K-12 ydiL at 16 fold MIC by microarray analysis
[24] = target: Glycerate 3-kinase (Escherichia coli (strain K12)) (UniProt P77364); assay: Inhibition of IPTG-stimulated Escherichia coli K-12 glxK at 4 fold MIC by microarray analysis
[25] = target: Transcriptional regulatory protein BaeR (Escherichia coli (strain K12)) (UniProt P69228); assay: Inhibition of IPTG-stimulated Escherichia coli K-12 baeR at 4 fold MIC by microarray analysis
[26] = target: UDP-N-acetylglucosamine 1-carboxyvinyltransferase (Escherichia coli K-12) (UniProt P0A749); assay: Inhibition of IPTG-stimulated Escherichia coli K-12 murA at 4 fold MIC by microarray analysis
[27] = target: Phosphatidylglycerol--prolipoprotein diacylglyceryl transferase (Escherichia coli (strain K12)) (UniProt P60955); assay: Inhibition of IPTG-stimulated Escherichia coli K-12 umpA at 4 fold MIC by microarray analysis
[28] = target: Multifunctional CCA protein (Escherichia coli (strain K12)) (UniProt P06961); assay: Inhibition of IPTG-stimulated Escherichia coli K-12 cca at 4 fold MIC by microarray analysis
[29] = target: UDP-N-acetylmuramoylalanine--D-glutamate ligase (Escherichia coli K-12) (UniProt P14900); assay: Inhibition of IPTG-stimulated Escherichia coli K-12 murD at 4 fold MIC by microarray analysis
[30] = target: Small ribosomal subunit protein bS18 (Escherichia coli (strain K12)) (UniProt P0A7T7); assay: Inhibition of IPTG-stimulated Escherichia coli K-12 rpSR at 8 fold MIC by microarray analysis
[31] = target: T3, Dihydrofolate synthase/folylpolyglutamate synthase (Escherichia coli (strain K12)) (UniProt P08192); assay: Inhibition of IPTG-stimulated Escherichia coli K-12 folC at 4 fold MIC by microarray analysis
T3 sequence (whole entry): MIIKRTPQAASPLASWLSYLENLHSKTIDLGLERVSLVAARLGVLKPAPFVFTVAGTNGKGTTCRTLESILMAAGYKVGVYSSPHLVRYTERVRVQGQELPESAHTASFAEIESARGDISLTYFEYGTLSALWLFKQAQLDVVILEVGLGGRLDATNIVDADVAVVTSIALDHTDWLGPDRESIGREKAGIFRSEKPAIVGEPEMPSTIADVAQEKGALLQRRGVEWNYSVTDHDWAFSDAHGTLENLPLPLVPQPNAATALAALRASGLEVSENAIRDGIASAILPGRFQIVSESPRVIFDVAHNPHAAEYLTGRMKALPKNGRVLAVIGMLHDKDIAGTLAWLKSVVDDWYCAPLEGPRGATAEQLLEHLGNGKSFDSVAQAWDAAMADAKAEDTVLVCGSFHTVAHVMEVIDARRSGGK

[32] = target: tRNA threonylcarbamoyladenosine biosynthesis protein TsaE (Escherichia coli (strain K12)) (UniProt P0AF67); assay: Inhibition of IPTG-stimulated Escherichia coli K-12 yjeE at 8 fold MIC by microarray analysis

Chain of tRNA(Ile)-lysidine synthase (Escherichia coli (strain K12)) (P52097 whole entry): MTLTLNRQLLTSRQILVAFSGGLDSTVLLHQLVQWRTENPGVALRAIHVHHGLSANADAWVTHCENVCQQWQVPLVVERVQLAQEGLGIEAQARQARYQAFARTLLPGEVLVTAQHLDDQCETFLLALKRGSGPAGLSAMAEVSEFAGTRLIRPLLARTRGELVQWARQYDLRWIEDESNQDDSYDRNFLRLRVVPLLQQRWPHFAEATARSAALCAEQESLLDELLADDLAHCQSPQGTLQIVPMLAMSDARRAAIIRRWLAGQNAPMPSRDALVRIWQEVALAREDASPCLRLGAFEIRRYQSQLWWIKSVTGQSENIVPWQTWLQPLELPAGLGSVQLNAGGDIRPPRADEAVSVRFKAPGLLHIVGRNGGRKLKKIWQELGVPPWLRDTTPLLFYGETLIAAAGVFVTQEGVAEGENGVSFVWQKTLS
Chain of Cell shape-determining protein MreC (Escherichia coli (strain K12)) (P16926 whole entry): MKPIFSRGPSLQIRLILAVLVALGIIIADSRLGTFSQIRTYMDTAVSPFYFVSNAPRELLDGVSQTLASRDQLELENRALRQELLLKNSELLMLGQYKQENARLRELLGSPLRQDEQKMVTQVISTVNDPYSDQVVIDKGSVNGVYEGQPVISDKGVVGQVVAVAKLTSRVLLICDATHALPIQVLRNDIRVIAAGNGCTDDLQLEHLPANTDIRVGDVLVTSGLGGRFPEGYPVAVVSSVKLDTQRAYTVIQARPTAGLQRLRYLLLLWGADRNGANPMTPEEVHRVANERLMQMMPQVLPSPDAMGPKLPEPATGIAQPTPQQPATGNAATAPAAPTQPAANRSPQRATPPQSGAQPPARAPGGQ
Chain of Protein YdfW (Escherichia coli (strain K12)) (P76164 whole entry): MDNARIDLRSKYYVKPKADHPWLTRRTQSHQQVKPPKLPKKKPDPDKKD
Chain of Antitoxin YefM (Escherichia coli (strain K12)) (P69346 whole entry): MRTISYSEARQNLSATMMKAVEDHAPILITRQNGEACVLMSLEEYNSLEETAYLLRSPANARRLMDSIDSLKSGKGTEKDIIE
Chain of Phosphatidylglycerol--prolipoprotein diacylglyceryl transferase (Escherichia coli (strain K12)) (P60955 whole entry): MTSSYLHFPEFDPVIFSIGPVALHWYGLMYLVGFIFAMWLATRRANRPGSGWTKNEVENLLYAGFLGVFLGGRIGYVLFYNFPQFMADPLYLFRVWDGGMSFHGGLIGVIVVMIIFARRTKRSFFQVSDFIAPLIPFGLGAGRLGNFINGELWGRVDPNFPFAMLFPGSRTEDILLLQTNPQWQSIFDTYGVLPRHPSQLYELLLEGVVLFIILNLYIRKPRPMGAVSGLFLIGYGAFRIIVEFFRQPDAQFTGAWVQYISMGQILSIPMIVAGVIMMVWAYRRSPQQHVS
Chain of UDP-N-acetylmuramoylalanine--D-glutamate ligase (Escherichia coli K-12) (P14900 whole entry): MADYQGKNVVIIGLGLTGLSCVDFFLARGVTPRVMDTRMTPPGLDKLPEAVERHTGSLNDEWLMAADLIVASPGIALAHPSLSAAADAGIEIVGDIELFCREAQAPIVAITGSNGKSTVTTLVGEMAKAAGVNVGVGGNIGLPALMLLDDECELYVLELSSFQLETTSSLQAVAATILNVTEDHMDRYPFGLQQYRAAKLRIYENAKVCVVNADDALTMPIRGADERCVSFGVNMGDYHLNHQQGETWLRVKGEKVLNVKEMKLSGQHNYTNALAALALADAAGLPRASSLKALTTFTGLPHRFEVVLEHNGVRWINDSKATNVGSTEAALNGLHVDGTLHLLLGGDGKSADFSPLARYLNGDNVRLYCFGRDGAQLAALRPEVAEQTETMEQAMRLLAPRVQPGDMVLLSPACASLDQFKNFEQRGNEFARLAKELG
Chain of UDP-N-acetylglucosamine 1-carboxyvinyltransferase (Escherichia coli K-12) (P0A749 whole entry): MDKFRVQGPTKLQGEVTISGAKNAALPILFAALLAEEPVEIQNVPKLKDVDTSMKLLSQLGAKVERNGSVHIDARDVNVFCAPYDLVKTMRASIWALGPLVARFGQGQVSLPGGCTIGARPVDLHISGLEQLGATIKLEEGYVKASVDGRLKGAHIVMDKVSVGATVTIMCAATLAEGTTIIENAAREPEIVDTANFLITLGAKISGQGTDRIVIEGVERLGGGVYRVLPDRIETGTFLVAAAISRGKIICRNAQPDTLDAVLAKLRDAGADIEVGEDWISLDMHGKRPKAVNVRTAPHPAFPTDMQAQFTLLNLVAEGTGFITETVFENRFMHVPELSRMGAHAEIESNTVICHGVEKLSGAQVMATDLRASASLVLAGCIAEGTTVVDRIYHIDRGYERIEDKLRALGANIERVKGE
Chain of Cell division protein FtsX (Escherichia coli (strain K12)) (P0AC30 whole entry): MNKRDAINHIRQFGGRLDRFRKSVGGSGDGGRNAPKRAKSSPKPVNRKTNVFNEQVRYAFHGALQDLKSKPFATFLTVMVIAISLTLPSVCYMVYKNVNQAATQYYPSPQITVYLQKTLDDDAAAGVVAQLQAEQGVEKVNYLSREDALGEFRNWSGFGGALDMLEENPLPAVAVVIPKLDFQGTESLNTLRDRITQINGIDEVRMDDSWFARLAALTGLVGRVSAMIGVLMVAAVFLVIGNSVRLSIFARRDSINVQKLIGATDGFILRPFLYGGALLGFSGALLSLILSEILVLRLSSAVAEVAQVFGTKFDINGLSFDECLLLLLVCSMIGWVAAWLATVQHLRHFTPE
Chain of Glutamyl-tRNA reductase (Escherichia coli (strain K12)) (P0A6X1 whole entry): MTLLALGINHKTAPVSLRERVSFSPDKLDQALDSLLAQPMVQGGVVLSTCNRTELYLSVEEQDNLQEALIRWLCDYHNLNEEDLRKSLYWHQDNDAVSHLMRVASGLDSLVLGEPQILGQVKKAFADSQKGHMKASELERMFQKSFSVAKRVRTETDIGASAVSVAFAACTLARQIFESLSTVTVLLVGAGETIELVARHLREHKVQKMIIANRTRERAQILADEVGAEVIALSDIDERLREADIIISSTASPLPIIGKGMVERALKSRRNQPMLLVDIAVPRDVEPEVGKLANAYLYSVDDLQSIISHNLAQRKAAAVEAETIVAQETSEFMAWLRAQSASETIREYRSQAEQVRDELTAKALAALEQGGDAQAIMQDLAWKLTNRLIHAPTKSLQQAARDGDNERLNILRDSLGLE
Chain of Long-chain fatty acid transport protein (Escherichia coli (strain K12)) (P10384 whole entry): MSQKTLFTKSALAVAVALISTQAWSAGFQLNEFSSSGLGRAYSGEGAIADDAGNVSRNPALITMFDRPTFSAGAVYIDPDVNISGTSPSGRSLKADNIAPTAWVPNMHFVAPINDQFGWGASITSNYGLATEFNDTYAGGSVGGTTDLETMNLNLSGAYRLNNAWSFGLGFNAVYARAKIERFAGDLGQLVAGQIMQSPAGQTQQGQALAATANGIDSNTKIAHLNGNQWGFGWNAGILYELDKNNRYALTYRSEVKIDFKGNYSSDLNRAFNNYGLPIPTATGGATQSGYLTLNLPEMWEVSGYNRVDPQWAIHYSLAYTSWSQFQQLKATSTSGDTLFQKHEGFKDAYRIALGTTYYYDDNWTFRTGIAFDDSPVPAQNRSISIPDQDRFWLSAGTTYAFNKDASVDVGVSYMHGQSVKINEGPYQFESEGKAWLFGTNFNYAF
Chain of 4-hydroxy-tetrahydrodipicolinate reductase (Escherichia coli (strain K12)) (P04036 whole entry): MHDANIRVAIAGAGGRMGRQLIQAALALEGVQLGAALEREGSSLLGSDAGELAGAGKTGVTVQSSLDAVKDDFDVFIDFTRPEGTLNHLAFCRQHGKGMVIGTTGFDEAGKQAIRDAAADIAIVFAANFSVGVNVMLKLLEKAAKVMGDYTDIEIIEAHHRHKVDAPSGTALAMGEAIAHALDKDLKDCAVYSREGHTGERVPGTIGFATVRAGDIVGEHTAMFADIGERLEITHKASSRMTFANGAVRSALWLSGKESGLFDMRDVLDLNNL
Chain of Intermembrane phospholipid transport system binding protein MlaB (Escherichia coli (strain K12)) (P64602 whole entry): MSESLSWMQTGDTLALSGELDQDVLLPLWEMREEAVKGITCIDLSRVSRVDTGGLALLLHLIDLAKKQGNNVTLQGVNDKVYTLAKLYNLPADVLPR
Chain of Transcriptional regulatory protein BaeR (Escherichia coli (strain K12)) (P69228 whole entry): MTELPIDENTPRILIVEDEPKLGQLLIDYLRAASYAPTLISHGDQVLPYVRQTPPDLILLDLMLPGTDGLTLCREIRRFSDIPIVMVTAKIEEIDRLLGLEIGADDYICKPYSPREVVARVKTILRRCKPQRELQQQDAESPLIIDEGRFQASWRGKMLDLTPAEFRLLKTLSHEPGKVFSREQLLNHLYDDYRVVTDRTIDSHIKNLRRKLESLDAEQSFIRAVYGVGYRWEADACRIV
Chain of Thymidylate kinase (Escherichia coli (strain K12)) (P0A720 whole entry): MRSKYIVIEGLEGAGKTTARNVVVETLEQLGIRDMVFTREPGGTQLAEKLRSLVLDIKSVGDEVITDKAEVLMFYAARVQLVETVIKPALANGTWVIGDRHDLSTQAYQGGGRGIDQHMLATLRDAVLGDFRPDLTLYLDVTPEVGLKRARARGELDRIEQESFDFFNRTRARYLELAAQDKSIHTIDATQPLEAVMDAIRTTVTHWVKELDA
Chain of Glycerate 3-kinase (Escherichia coli (strain K12)) (P77364 whole entry): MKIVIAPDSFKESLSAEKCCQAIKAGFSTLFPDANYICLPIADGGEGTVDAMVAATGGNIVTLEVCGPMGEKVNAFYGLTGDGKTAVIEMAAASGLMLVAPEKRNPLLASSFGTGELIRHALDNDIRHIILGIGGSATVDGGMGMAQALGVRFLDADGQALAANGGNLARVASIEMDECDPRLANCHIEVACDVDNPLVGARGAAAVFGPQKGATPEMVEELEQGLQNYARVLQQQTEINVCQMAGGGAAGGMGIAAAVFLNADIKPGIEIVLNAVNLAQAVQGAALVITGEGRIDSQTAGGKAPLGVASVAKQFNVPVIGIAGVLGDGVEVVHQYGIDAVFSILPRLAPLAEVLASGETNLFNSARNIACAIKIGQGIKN

## COc1cccc(CCN2CN=C(SCc3ccc(Cl)cc3)NC2)c1
Escherichia coli [1]
  MIC: 16 µg/mL (≈ 42.6 µM)

## COc1ccc(CCN2CN=C(SCc3cccc(Cl)c3)NC2)cc1OC
Escherichia coli [1]
  MIC: > 256 µg/mL

## COc1ccc(CSC2=NCN(CCc3ccc(OC)c(OC)c3)CN2)cc1
Escherichia coli [1]
  MIC: 512 µg/mL (≈ 1280 µM)

## COc1ccc(CCN2CN=C(SCc3ccccc3)NC2)cc1OC
Bacillus subtilis
  MIC: > 256 µg/mL
Candida albicans
  MIC: > 256 µg/mL
[2]
  MIC: 16 µg/mL (≈ 43.1 µM)
Micrococcus luteus
  MIC: > 256 µg/mL
Escherichia coli [1]
  MIC: 256 µg/mL (≈ 689 µM)
Pseudomonas aeruginosa
  MIC: 32 µg/mL (≈ 86.1 µM)
HeLa
  Activity: > 256 µg/mL
Escherichia coli [3]
  MIC: 8 µg/mL (≈ 21.5 µM)
Burkholderia cepacia
  MIC: 128 µg/mL (≈ 345 µM)
Staphylococcus aureus
  MIC: > 256 µg/mL

## Clc1ccc(CSC2=NCN(CCc3ccccc3)CN2)cc1
Escherichia coli [1]
  MIC: 8 µg/mL (≈ 23.1 µM)

## COc1ccc(CCN2CN=C(SCc3ccc(Cl)cc3)NC2)cc1
Escherichia coli [1]
  MIC: 64 µg/mL (≈ 170 µM)

## COc1cc(Cc2cnc(N)nc2N)cc(OC)c1OC
[4]
  inhibition: Active

## COc1ccc(CCN2CN=C(SCc3ccc(Cl)c(Cl)c3)NC2)cc1OC
Escherichia coli [1]
  MIC: 8 µg/mL (≈ 18.2 µM)

## COc1ccc(CCN2CN=C(SCc3ccccc3Cl)NC2)cc1OC
Escherichia coli [1]
  MIC: > 256 µg/mL

## COc1ccc(CCN2CN=C(SCc3ccc(C)cc3)NC2)cc1OC
Escherichia coli [1]
  MIC: 64 µg/mL (≈ 166 µM)

## COc1ccc(CCN2CN=C(SCc3ccc(Br)cc3)NC2)cc1OC
Escherichia coli [1]
  MIC: 8 µg/mL (≈ 17.8 µM)

## O=CN(O)CCCP(=O)(O)O
[5]
  inhibition: Active
[6]
  inhibition: Active
[7]
  inhibition: Active
[8]
  inhibition: Active
[9]
  inhibition: Active
[10]
  inhibition: Active
[11]
  inhibition: Active
[12]
  inhibition: Active
[13]
  inhibition: Active
[14]
  inhibition: Active
[15]
  inhibition: Active
[16]
  inhibition: Active
[17]
  inhibition: Active
[18]
  inhibition: Active
[19]
  inhibition: Active
[20]
  inhibition: Active
[21]
  inhibition: Active
[22]
  inhibition: Active
[23]
  inhibition: Active
[24]
  inhibition: Active
[25]
  inhibition: Active
[26]
  inhibition: Active
[27]
  inhibition: Active
[28]
  inhibition: Active
[29]
  inhibition: Active

## COc1ccc(CN2CN=C(SCc3ccc(Cl)cc3)NC2)cc1OC
Escherichia coli [1]
  MIC: 32 µg/mL (≈ 81.6 µM)

## COc1ccc(CCN2CN=C(SCc3ccc(I)cc3)NC2)cc1OC
Escherichia coli [1]
  MIC: 256 µg/mL (≈ 515 µM)

## CN1CN=C(SCc2ccc(Cl)cc2)NC1
Bacillus subtilis
  MIC: > 256 µg/mL
Candida albicans
  MIC: > 256 µg/mL
[2]
  MIC: > 256 µg/mL
Micrococcus luteus
  MIC: > 256 µg/mL
Escherichia coli [1]
  MIC: 8 µg/mL (≈ 31.3 µM)
Pseudomonas aeruginosa
  MIC: > 256 µg/mL
HeLa
  Activity: > 256 µg/mL
Escherichia coli [3]
  MIC: 256 µg/mL (≈ 1000 µM)
Burkholderia cepacia
  MIC: > 256 µg/mL
Staphylococcus aureus
  MIC: > 256 µg/mL

## Cc1cc(NS(=O)(=O)c2ccc(N)cc2)no1
[5]
  inhibition: Active
[30]
  inhibition: Active
[13]
  inhibition: Active
[31]
  inhibition: Active
[16]
  inhibition: Active
[4]
  inhibition: Active
[32]
  inhibition: Active

## COc1ccc(CCN2CN=C(SCc3ccc([N+](=O)[O-])cc3)NC2)cc1OC
Escherichia coli [1]
  MIC: > 256 µg/mL

## CN[C@@H]1[C@H](O)[C@H](NC)[C@H]2O[C@@]3(O)C(=O)C[C@@H](C)O[C@H]3O[C@@H]2[C@H]1O
[30]
  inhibition: Active
[13]
  inhibition: Active
[4]
  inhibition: Active
[32]
  inhibition: Active

## Clc1ccc(CCN2CN=C(SCc3ccc(Cl)cc3)NC2)cc1
Escherichia coli [1]
  MIC: 32 µg/mL (≈ 84.1 µM)

## CCN1CN=C(SCc2ccc(Cl)cc2)NC1
Escherichia coli [1]
  MIC: 8 µg/mL (≈ 29.7 µM)

## COc1ccc(CCN2CN=C(SCc3cc(Cl)cc(Cl)c3)NC2)cc1OC
Escherichia coli [1]
  MIC: 16 µg/mL (≈ 36.3 µM)

From ChEMBL document CHEMBL1212733, “Chemical genomics in Escherichia coli identifies an inhibitor of bacterial lipoprotein targeting” (Nat Chem Biol, 2009)
